Reference: paper PMC11271967, “An inhibitory mechanism of AasS, an exogenous fatty acid scavenger: Implications for re-sensitization of FAS II antimicrobials” (PLOS Pathogens, 2024)

Legend:
[1] = target: T1, AasS (Vibrio harveyi, UniProt Q00IB3); assay: Isothermal titration calorimetry (ITC), wild-type AasS; assay type: binding; conditions: AasS ~40 μM saturated with ATP 120 μM
Protocol: The assays of Isothermal titration calorimetry (ITC) were conducted to address the stoichiometry of AasS binding to its C10-AMS inhibitor and C10-AMP intermediate. Since both malic acid and pimelic acid are not substrates for AasS, the two dicarboxylic acids were assumed as negative controls in our ITC analysis. Using a micro-calorimeter (MicroCal PEAQ-ITC) as recently described for E-C7 with little change, totally 18 titrations (2 μl each at an internal of 2.5 min) proceeded in the cell at room temperature. Prior to the titration, AasS protein (~40 μM) was saturated with its ATP cofactor (120 μM) in the cell, and C10-AMS inhibitor (or C10) was kept at 600 μM in the syringe. The titration buffer was composed of 150 mM NaCl, 25 mM Tris-HCl (pH8.0), 2 mM DTT, and 3 mM MgCl2. One set of site model by the MicroCal PEAQ-ITC software enabled plotting the titration curves. Next, the stoichiometry (N) and dissociation constant (Kd) were calculated. It was given as an average ± standard deviation (SD) from three independent trials.

[2] = target: T1, AasS; assay: Microscale thermophoresis (MST), wild-type AasS; assay type: binding; conditions: MST
Protocol: (§1) To validate poor binding of AasS(D411A) to C10 fatty acyl adenylate observed in our ITC assays, the relatively-more sensitive approach of microscale thermophoresis (MST) was additionally applied here as Jerabek-Willemsen et al. described with minor alteration. Using the Protein Labeling Kit (Protein Labeling Kit RED-NHS 2nd Generation, Nano Temper Technology), both the wild-type AasS and its D411A mutant were fluorescently labelled in the MST buffer (150 mM NaCl, 25 mM Tris-HCl, 3 mM MgCl2, 0.05% Tween-20, pH 8.0). The ligand C10-AMP used in MST assays was prepared by an equal mixture of C10 and ATP. In general, an NT.115 Monolith instrument (Nano Temper Technology, Germany) was integrated, of which the routine parameters included a RED/LED (20%) excitation power along with 60% laser power for excitation. Then, the protein samples were siphoned into MST Premium Coated capillaries for the determination of binding affinity at room temperature. The final concentrations of different AasS samples were 40 nM for WT, and 180 nM for D411A, respectively. The mixture of C10/ATP was diluted in a gradient (from 0.15 nM to 5.0 μM). Three independent MST experiments were conducted here. The dissociation constants (Kd) were calculated using the software MO. Affinity Analysis v2.3. Of note, this was largely dependent on the KD model with a 1:1 stoichiometry per binding partner.

[3] = system: AasS(D411A); assay: Microscale thermophoresis (MST), AasS(D411A) mutant; assay type: binding, Vibrio harveyi; conditions: MST
Protocol: as §1

T1 sequence (Q00IB3 entry or part of it): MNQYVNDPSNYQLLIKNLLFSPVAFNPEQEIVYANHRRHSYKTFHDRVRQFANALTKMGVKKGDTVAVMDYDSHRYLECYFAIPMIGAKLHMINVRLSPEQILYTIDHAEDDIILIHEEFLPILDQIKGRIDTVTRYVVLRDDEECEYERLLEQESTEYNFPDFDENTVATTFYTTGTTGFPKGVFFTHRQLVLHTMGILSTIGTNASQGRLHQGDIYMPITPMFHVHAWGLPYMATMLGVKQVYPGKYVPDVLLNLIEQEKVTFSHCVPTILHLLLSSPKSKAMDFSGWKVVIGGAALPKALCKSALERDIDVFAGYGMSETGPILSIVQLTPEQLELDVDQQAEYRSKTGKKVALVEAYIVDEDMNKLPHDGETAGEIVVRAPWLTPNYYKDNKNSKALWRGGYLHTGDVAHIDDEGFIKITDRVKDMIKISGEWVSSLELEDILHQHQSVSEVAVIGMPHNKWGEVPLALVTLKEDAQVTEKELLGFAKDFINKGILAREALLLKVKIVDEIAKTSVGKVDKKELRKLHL

CCCCCCCCCC(=O)NS(=O)(=O)OC[C@H]1O[C@@H](n2cnc3c(N)ncnc32)[C@H](O)[C@@H]1O [C10-AMS]
stoichiometry (n) [1]: 0.97±0.16 | Kd ([1]; ligand 600 μM in syringe, room temperature, read-out: dissociation constant (Kd)): 14.1 ± 3.82 nM | Average (DeltaFNorm), AasS(WT) ([2]; Dose 1.52588e-10): 0.4239 | Average (DeltaFNorm), AasS(WT) ([2]; Dose 3.05176e-10): 1.688 | Average (DeltaFNorm), AasS(WT) ([2]; Dose 6.10352e-10): 0.6276 | Average (DeltaFNorm), AasS(WT) ([2]; Dose 1.2207e-9): -0.2133 | Average (DeltaFNorm), AasS(WT) ([2]; Dose 2.44141e-9): -0.7539 | Average (DeltaFNorm), AasS(WT) ([2]; Dose 4.88281e-9): -0.9203 | Average (DeltaFNorm), AasS(WT) ([2]; Dose 9.76563e-9): -2.469 | Average (DeltaFNorm), AasS(WT) ([2]; Dose 1.95313e-8): -0.4913 | Average (DeltaFNorm), AasS(WT) ([2]; Dose 3.90625e-8): -0.5142 | Average (DeltaFNorm), AasS(WT) ([2]; Dose 7.8125e-8): -1.198 | Average (DeltaFNorm), AasS(WT) ([2]; Dose 1.5625e-7): -2.398 | Average (DeltaFNorm), AasS(WT) ([2]; Dose 3.125e-7): -4.638 | Average (DeltaFNorm), AasS(WT) ([2]; Dose 6.25e-7): -6.534 | Average (DeltaFNorm), AasS(WT) ([2]; Dose 1.25e-6): -7.36 | Average (DeltaFNorm), AasS(WT) ([2]; Dose 2.5e-6): -8.128 | Average (DeltaFNorm), AasS(WT) ([2]; Dose 5e-6): -7.529 | Average (DeltaFNorm), AasS(D411A) ([3]; Dose 1.52588e-10): 4.014 | Average (DeltaFNorm), AasS(D411A) ([3]; Dose 3.05176e-10): 2.739 | Average (DeltaFNorm), AasS(D411A) ([3]; Dose 6.10352e-10): 3.15 | Average (DeltaFNorm), AasS(D411A) ([3]; Dose 1.2207e-9): 3.03 | Average (DeltaFNorm), AasS(D411A) ([3]; Dose 2.44141e-9): -1.436 | Average (DeltaFNorm), AasS(D411A) ([3]; Dose 4.88281e-9): 1.165 | Average (DeltaFNorm), AasS(D411A) ([3]; Dose 9.76563e-9): 0.1826 | Average (DeltaFNorm), AasS(D411A) ([3]; Dose 1.95313e-8): -0.6893 | Average (DeltaFNorm), AasS(D411A) ([3]; Dose 3.90625e-8): 2.194 | Average (DeltaFNorm), AasS(D411A) ([3]; Dose 7.8125e-8): -2.669 | Average (DeltaFNorm), AasS(D411A) ([3]; Dose 1.5625e-7): -0.9022 | Average (DeltaFNorm), AasS(D411A) ([3]; Dose 3.125e-7): -3.911 | Average (DeltaFNorm), AasS(D411A) ([3]; Dose 1.25e-6): -3.293 | Average (DeltaFNorm), AasS(D411A) ([3]; Dose 2.5e-6): -1.334 | Average (DeltaFNorm), AasS(D411A) ([3]; Dose 5e-6): -2.2407
